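1) Cells in 96-well plates. 2) Compound, 48 h, 5 concentrations. 3) Linear interpolation between surrounding doses. 4) Unreached endpoint = highest concentration. At the GI50, growth is halved.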 Active and inactive are the calls of the source. No stated cut-off is given here; in the data, active = GI50 up to about 1.1 µM and inactive = higher.
Experiments:
Experiment in all cases: NCI anticancer screen, dose series, 48 h
HOP-92 = test system: HOP-92
A549 = test system: A549
RXF 393 = test system: RXF 393
HCT-15 = test system: HCT-15
EKVX = test system: EKVX
UACC-257 = test system: UACC-257
LOX IMVI = test system: LOX IMVI
SK-OV-3 = test system: SK-OV-3
SF-295 = test system: SF-295
UO-31 = test system: UO-31
SNB-75 = test system: SNB-75
NCI-H460 = test system: NCI-H460
SK-MEL-5 = test system: SK-MEL-5
COLO 205 = test system: COLO 205
SN12C = test system: SN12C
CCRF-CEM = test system: CCRF-CEM
KM12 = test system: KM12
HT-29 = test system: HT-29
HCC 2998 = test system: HCC 2998
TK-10 = test system: TK-10

Structure (SMILES)	GI50 (HOP-92)	GI50 (A549)	GI50 (RXF 393)	GI50 (HCT-15)	GI50 (EKVX)	GI50 (UACC-257)	GI50 (LOX IMVI)	GI50 (SK-OV-3)	GI50 (SF-295)	GI50 (UO-31)	GI50 (SNB-75)	GI50 (NCI-H460)	GI50 (SK-MEL-5)	GI50 (COLO 205)	GI50 (SN12C)	GI50 (CCRF-CEM)	GI50 (KM12)	GI50 (HT-29)	GI50 (HCC 2998)	GI50 (TK-10)
O=NN1C(c2ccccc2)CNC(=O)CC1c1ccccc1 (stereo unspecified)	42.8 µM (inactive)	44.5 µM (inactive)	22.2 µM (inactive)	36 µM	35.4 µM (inactive)	36.4 µM (inactive)	46.7 µM (inactive)	42 µM (inactive)	32.7 µM (inactive)	36.3 µM (inactive)	20.8 µM (inactive)	36.2 µM (inactive)	25.3 µM (inactive)	25.8 µM (inactive)	53 µM (inactive)	35.3 µM (inactive)	42.9 µM (inactive)	28.6 µM (inactive)	27.3 µM (inactive)	–
COc1ccc(C[C@H](N)C(=O)N2C[C@H](CO)C[C@H](n3cnc4c(N(C)C)ncnc43)C2)cc1	57 µM (inactive)	> 100 µM (inactive)	> 100 µM (inactive)	> 100 µM	> 100 µM (inactive)	–	> 100 µM (inactive)	> 100 µM (inactive)	–	> 100 µM (inactive)	–	> 100 µM (inactive)	> 100 µM (inactive)	> 100 µM (inactive)	> 100 µM (inactive)	> 100 µM (inactive)	> 100 µM (inactive)	> 100 µM (inactive)	> 100 µM (inactive)	> 100 µM (inactive)
CC(C)(C)[Si](C)(C)OC[C@H](/C=C\CCCC(=O)O)NC1(c2ccccc2)c2ccccc2-c2ccccc21	11.1 µM (inactive)	10.7 µM (inactive)	10.2 µM (inactive)	11.2 µM	12.2 µM (inactive)	10.2 µM (inactive)	12.9 µM (inactive)	20.4 µM (inactive)	16.4 µM (inactive)	19.3 µM (inactive)	29.4 µM (inactive)	15.1 µM (inactive)	11.2 µM (inactive)	13.6 µM (inactive)	11.6 µM (inactive)	–	15.5 µM (inactive)	13.2 µM (inactive)	14.5 µM (inactive)	24.3 µM (inactive)
O=C1CCCCN1	> 1120 µM (inactive)	> 1120 µM (inactive)	272 µM (inactive)	> 1120 µM	> 258 µM (inactive)	> 1120 µM (inactive)	> 1120 µM (inactive)	> 150 µM (inactive)	> 1120 µM (inactive)	> 1120 µM (inactive)	> 1120 µM (inactive)	> 1120 µM (inactive)	> 1120 µM (inactive)	> 1120 µM (inactive)	> 267 µM (inactive)	> 1120 µM (inactive)	> 1120 µM (inactive)	> 1120 µM (inactive)	333 µM (inactive)	–
OC[C@@H](O)[C@H]1NC[C@@H](O)[C@H]1O	> 100 µM (inactive)	> 100 µM (inactive)	> 100 µM (inactive)	> 100 µM	> 100 µM (inactive)	> 100 µM (inactive)	–	> 100 µM (inactive)	> 100 µM (inactive)	> 100 µM (inactive)	> 100 µM (inactive)	> 100 µM (inactive)	> 100 µM (inactive)	> 100 µM (inactive)	> 100 µM (inactive)	> 100 µM (inactive)	> 100 µM (inactive)	> 100 µM (inactive)	> 100 µM (inactive)	> 100 µM (inactive)
O=c1cc(-c2nc3ccccc3[nH]2)[nH]c2nc(-c3nc4ccccc4[nH]3)cc(-c3ccc(Cl)cc3)c12	5.52 µM (inactive)	24.4 µM (inactive)	14.5 µM (inactive)	10 µM	23.3 µM (inactive)	23.7 µM (inactive)	15.5 µM (inactive)	15.3 µM (inactive)	21.5 µM (inactive)	11.2 µM (inactive)	–	16.3 µM (inactive)	15.7 µM (inactive)	12.1 µM (inactive)	16.5 µM (inactive)	24.7 µM (inactive)	22 µM (inactive)	20 µM (inactive)	–	19.4 µM (inactive)
CC(=O)N1N=C(c2ccc3ccccc3c2O)CC1c1cccs1 (stereo unspecified)	33.7 µM (inactive)	13.9 µM (inactive)	15.7 µM (inactive)	14 µM	–	34.8 µM (inactive)	–	44.3 µM (inactive)	21.7 µM (inactive)	9.95 µM (inactive)	25.5 µM (inactive)	8.49 µM (inactive)	18.3 µM (inactive)	20.2 µM (inactive)	12.1 µM (inactive)	4.04 µM (inactive)	14.4 µM (inactive)	21.9 µM (inactive)	21.6 µM (inactive)	25 µM (inactive)
CC(=O)O[C@H]1CC[C@]2(C=O)[C@H]3CC[C@]4(C)[C@@H](C5=CC(=O)OC5)CC[C@]4(O)[C@@H]3CC[C@]2(O)C1 [STROPHANTHIDIN ACETATE]	0.424 µM (active)	0.0684 µM (active)	–	0.203 µM	0.225 µM (active)	0.362 µM (active)	0.222 µM (active)	0.222 µM (active)	0.175 µM (active)	0.23 µM (active)	0.601 µM (active)	0.0578 µM (active)	0.0923 µM (active)	0.378 µM (active)	0.42 µM (active)	0.0605 µM (active)	0.692 µM (active)	0.212 µM (active)	0.325 µM (active)	0.211 µM (active)
NC12CCC(CC1=O)C2 (stereo unspecified)	> 100 µM (inactive)	> 100 µM (inactive)	–	> 100 µM	> 100 µM (inactive)	> 100 µM (inactive)	> 100 µM (inactive)	> 100 µM (inactive)	> 100 µM (inactive)	> 100 µM (inactive)	> 100 µM (inactive)	–	> 100 µM (inactive)	> 100 µM (inactive)	> 100 µM (inactive)	> 100 µM (inactive)	> 100 µM (inactive)	> 100 µM (inactive)	> 100 µM (inactive)	> 100 µM (inactive)
COC1C(=[N+]=[N-])C(=O)NC(=O)N1C1OC(COC(c2ccccc2)(c2ccccc2)c2ccccc2)C(O)C1O (stereo unspecified)	–	17.5 µM (inactive)	–	18 µM	19 µM (inactive)	> 10 µM (inactive)	15.5 µM (inactive)	20.5 µM (inactive)	18 µM (inactive)	18.2 µM (inactive)	15 µM (inactive)	25.4 µM (inactive)	16.2 µM (inactive)	19.6 µM (inactive)	16.3 µM (inactive)	16.5 µM (inactive)	16.9 µM (inactive)	18.7 µM (inactive)	18.4 µM (inactive)	–
O=C1CSC(C(/N=N/c2ccc(Cl)cc2)c2nc3ccccc3[nH]2)=N1 (stereo unspecified)	54 µM (inactive)	> 100 µM (inactive)	–	> 100 µM	91.2 µM (inactive)	> 100 µM (inactive)	–	55 µM (inactive)	38.8 µM (inactive)	39.1 µM (inactive)	25.6 µM (inactive)	33 µM (inactive)	25.6 µM (inactive)	> 100 µM (inactive)	> 100 µM (inactive)	10.7 µM (inactive)	45.8 µM (inactive)	> 100 µM (inactive)	25.6 µM (inactive)	> 100 µM (inactive)
